Consider one molecule from the NIST ThermoML archive (doi:10.1016/j.jct.2011.06.002).

The conditions of this data set: for viscosity: 101.33 kPa, Liquid, Falling or rolling sphere viscometry.

Numbers after ± are expanded uncertainties.

Take `Cl.Cn1ccnc1` [1-methylimidazolium chloride]: the viscosity (commonly the internal friction of a fluid under shear) (348.15 K) was found to be 108.86 ± 3.6 mPa·s, the viscosity (351.15 K) is given as 92.99 ± 2.8 mPa·s, the viscosity (353.15 K) is 84.17 ± 2.3 mPa·s and the viscosity (358.15 K) turned out to be 66.28 ± 1.6 mPa·s. In addition, the Normal melting temperature (Crystal, DTA) is 74.16 ± 2 °C.
